Source: patent US11149054B2, “Oxysterols and methods of use thereof” (Sage Therapeutics, Inc., priority 2016, dated 2021)
Where two headings read alike, the source gives them in different places.

Tests used:
[1] = target: GluN2B glutamate receptors (Homo sapiens (Human), UniProt Q05586+Q13224); experiment: Whole-cell patch clamp of mammalian cells (Ionworks Barracuda), positive allosteric modulation, GluN2B; assay type: cell-based; conditions: for Emax: read-out: Avg Emax 2B (%)
In short: (§1)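 Perforated-patch whole-cell recording, holding −70 mV, −40 mV during application; Cs-based internal pH 7.2, external with 5 mM CaCl2 pH 7.4. Test article pre-applied alone 5 min, then co-applied with EC20 L-glutamate plus 30 μM glycine. EC50 from Hill fit of % activation over the EC20 current.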

[2] = target: GlunN1/GluN2A glutamate receptors (Homo sapiens (Human), UniProt Q05586+Q12879); experiment: Whole-cell patch clamp of mammalian cells (Ionworks Barracuda), positive allosteric modulation, GluN1/GluN2A; assay type: cell-based
GlunN1/GluN2A glutamate receptors, sequence (Q12879 23-1464, other chains not shown): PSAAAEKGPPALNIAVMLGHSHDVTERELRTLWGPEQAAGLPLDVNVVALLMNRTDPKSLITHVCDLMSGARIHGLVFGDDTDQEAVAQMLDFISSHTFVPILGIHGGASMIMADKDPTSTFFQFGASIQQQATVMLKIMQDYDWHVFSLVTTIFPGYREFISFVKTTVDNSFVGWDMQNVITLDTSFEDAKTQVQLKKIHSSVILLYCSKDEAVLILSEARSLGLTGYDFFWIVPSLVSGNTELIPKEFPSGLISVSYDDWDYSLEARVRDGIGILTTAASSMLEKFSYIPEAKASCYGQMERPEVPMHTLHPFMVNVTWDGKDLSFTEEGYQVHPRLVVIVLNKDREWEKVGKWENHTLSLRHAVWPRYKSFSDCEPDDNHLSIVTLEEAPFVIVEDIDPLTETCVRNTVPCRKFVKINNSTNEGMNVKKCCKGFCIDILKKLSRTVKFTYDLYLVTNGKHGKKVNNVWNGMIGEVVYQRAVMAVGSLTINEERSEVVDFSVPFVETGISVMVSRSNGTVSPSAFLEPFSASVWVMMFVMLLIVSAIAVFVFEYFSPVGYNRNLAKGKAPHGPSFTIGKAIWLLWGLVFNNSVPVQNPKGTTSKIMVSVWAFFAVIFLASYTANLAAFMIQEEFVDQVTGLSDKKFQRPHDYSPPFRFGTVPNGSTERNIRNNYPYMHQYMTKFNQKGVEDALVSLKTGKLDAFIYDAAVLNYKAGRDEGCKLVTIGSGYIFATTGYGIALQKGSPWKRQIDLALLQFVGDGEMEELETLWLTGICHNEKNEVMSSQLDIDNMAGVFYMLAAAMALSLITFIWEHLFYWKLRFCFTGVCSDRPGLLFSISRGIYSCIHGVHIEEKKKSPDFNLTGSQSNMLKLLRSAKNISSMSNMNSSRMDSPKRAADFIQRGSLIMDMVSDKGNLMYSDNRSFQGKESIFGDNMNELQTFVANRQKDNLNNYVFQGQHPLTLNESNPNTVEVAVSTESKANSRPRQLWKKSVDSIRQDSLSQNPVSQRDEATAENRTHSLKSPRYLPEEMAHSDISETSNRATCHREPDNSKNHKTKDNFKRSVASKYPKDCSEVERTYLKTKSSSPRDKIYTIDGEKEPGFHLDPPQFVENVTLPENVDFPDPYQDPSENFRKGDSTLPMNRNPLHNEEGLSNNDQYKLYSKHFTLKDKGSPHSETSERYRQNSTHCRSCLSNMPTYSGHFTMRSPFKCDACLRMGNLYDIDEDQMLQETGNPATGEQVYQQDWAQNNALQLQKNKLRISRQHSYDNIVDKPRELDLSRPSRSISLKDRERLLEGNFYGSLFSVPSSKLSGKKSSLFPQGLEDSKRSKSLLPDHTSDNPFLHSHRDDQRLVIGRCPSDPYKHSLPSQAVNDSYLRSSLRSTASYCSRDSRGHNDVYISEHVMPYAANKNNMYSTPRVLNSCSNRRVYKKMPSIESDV
In short: as §1

[3] = % potentiation of current elicited with EC20 L-glutamate and 30 μM glycine
[4] = co-application with EC20 L-glutamate and 30 μM glycine, 8-point concentration-response, read-out: Avg EC50 2B
[5] = HEK293 cells, % potentiation of current elicited with EC20 L-glutamate and 30 μM glycine, read-out: Avg Emax 2A (%)
[6] = HEK293 cells, co-application with EC20 L-glutamate and 30 μM glycine, 8-point concentration-response, read-out: Avg EC50 2A

GluN2B glutamate receptors, sequence (Q13224 27-1484, other chains not shown): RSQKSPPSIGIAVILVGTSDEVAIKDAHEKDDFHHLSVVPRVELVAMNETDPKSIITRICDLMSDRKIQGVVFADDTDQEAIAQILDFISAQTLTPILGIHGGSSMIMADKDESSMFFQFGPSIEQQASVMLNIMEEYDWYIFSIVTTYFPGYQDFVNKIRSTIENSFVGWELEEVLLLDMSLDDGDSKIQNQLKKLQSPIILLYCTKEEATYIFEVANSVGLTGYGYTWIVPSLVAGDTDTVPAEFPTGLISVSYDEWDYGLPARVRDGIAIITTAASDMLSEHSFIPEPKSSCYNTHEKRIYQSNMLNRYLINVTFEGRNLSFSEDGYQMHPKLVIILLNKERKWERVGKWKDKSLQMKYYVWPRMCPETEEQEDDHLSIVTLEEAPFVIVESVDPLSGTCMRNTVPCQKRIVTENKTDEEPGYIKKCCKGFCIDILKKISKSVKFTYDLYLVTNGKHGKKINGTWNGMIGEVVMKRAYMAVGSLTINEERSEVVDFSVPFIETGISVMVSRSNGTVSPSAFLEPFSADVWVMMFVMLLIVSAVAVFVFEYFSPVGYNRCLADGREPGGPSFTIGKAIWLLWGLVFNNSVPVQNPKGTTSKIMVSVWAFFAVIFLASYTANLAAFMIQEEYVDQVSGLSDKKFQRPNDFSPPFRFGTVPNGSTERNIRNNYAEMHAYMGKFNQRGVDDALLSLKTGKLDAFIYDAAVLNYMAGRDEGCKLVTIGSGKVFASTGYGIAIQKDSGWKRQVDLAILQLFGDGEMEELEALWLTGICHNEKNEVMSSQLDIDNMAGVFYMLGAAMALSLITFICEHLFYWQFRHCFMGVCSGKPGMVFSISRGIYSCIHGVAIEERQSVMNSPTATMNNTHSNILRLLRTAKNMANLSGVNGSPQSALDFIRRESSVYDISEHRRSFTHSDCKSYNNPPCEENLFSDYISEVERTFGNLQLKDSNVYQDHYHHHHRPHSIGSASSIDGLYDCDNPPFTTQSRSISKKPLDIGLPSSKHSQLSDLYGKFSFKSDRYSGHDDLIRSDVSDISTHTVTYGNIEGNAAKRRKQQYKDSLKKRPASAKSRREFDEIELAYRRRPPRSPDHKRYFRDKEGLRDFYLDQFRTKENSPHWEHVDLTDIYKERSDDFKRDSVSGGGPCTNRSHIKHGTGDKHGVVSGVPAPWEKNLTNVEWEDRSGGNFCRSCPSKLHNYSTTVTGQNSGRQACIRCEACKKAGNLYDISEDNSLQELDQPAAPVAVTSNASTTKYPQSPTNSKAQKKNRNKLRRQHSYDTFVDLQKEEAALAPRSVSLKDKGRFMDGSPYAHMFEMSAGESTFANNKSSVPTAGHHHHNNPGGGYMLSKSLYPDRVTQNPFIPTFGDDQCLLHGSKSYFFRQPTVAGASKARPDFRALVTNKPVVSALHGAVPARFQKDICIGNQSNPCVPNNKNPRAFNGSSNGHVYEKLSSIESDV

| Compound | EC50 [1] | EC50 [2] | Emax [1, 3] | EC50 [1, 4] | Emax [2, 5] | EC50 [2, 6] | Emax [1] | Emax ([2]; HEK293, read-out: Avg Emax 2A (%)) |
| --- | --- | --- | --- | --- | --- | --- | --- | --- |
| CC[C@]1(O)CC[C@H]2C(=CC[C@@H]3[C@@H]2CC[C@]2(C)[C@@H]([C@H](C)CC[C@H](O)C(C)C)CC[C@@H]32)C1 [Compound 8462] | 96.2 nM | 170 nM |  |  |  |  |  |  |
| CC[C@]1(O)CC[C@H]2C(=CC[C@@H]3[C@@H]2CC[C@]2(C)[C@@H]([C@H](C)CCCC(O)C(C)(C)C)CC[C@@H]32)C1 (stereo partly drawn) [Compound 10012] |  |  | 168% | 910 nM | 154% | 790 nM |  |  |
| C[C@H](CCC1(O)CCOCC1)[C@H]1CC[C@H]2[C@@H]3CC[C@H]4C[C@](O)(C(F)(F)F)CC[C@]4(C)[C@H]3CC[C@]12C [Compound 11] |  |  | 157% |  | 151% |  |  |  |
| C[C@H](CC[C@@H](C)O)[C@H]1CC[C@H]2[C@@H]3CC[C@H]4C[C@](O)(C(F)(F)F)CC[C@]4(C)[C@H]3CC[C@]12C [Compound 2285] | 494 nM | 764 nM | 220% |  | 205% |  |  |  |
| CC(C)[C@H](O)CC[C@@H](C)[C@H]1CC[C@H]2[C@@H]3CC[C@H]4C[C@](O)(C(F)(F)F)CC[C@]4(C)[C@H]3CC[C@]12C [Compound 2B] | 143 nM | 131 nM | 965% |  | 625% |  |  |  |
| CC[C@H]1CC[C@](O)(CC[C@@H](C)[C@H]2CC[C@H]3[C@@H]4CC[C@H]5C[C@](O)(C(F)(F)F)CC[C@]5(C)[C@H]4CC[C@]23C)CC1 [Compound 4476] | > 10000 nM | > 10000 nM | 10.4% |  | -3.3% |  |  |  |
| C[C@H](CC[C@@H](O)C(F)(F)F)[C@H]1CC[C@H]2[C@@H]3CC=C4C[C@](O)(C(F)(F)F)CC[C@]4(C)[C@H]3CC[C@]12C [Compound 3149] | 60.7 nM | 69.7 nM |  |  |  |  |  |  |
| CC[C@]1(O)CC[C@@]2(C)C(=CC[C@H]3[C@@H]4CC[C@H]([C@H](C)CC[C@H](O)c5cccc(F)c5)[C@@]4(C)CC[C@@H]32)C1 [Compound 6896] | 1680 nM | 519 nM | 402% |  | 216% |  |  |  |
| CO[C@H]1CC[C@@](O)(CC[C@@H](C)[C@H]2CC[C@H]3[C@@H]4CC[C@H]5C[C@](O)(C(F)(F)F)CC[C@]5(C)[C@H]4CC[C@]23C)CC1 [Compound 4555] | > 10000 nM | > 10000 nM | 31.9% |  | 22.8% |  |  |  |
| C[C@H](CCC(O)C(C)(C)C)[C@H]1CC[C@H]2[C@@H]3CC[C@H]4C[C@](O)(C(F)(F)F)CC[C@]4(C)[C@H]3CC[C@]12C (stereo partly drawn) [Compound 3] | 338 nM | 185 nM |  |  |  |  | 532% | 556% |
| C[C@H](CCC(O)(c1ccccc1)C(F)(F)F)[C@H]1CC[C@H]2[C@@H]3CC=C4C[C@@](C)(O)CC[C@]4(C)[C@H]3CC[C@]12C (stereo partly drawn) [Compound 559] |  |  | 373% |  | 204% |  |  |  |
| C[C@H](CC[C@H](O)C1CCOCC1)[C@H]1CC[C@H]2[C@@H]3CC[C@H]4C[C@](O)(C(F)(F)F)CC[C@]4(C)[C@H]3CC[C@]12C [Compound 2080] | 187 nM | 165 nM | 147% |  | 77.2% |  |  |  |
| C[C@H](CC[C@@H](O)C1CCCCC1)[C@H]1CC[C@H]2[C@@H]3CC[C@H]4C[C@](O)(C(F)(F)F)CC[C@]4(C)[C@H]3CC[C@]12C [Compound 4156] | > 10000 nM | > 10000 nM | 20.1% |  | 10.6% |  |  |  |
| C[C@H](CCC[C@@H](O)C(F)(F)F)[C@H]1CC[C@H]2[C@@H]3CC[C@H]4C[C@](O)(C(F)(F)F)CC[C@]4(C)[C@H]3CC[C@]12C [Compound 3114] |  |  | 294% | 244 nM | 318% | 382 nM |  |  |
